Source: patent US12139492B2 (Endotarget Inc., priority 2021, dated 2024)
pIC50: −log10 of the molar value.

Columns and labels:
Assay type in all cases: cell-based
Mino cells = assay: Antiproliferative effect, MTS cell viability assay, Mino cells; conditions: Homo sapiens, MINO, Mino mantle cell lymphoma cells; read-out: IC50 (anti-proliferation) Mino cells
In short: (§1)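 Tested at six concentrations (0 to 10 μM in tenfold steps), 72 h; viability by MTS, A490.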

JeKo-1 cells = assay: Antiproliferative effect, MTS cell viability assay, JeKo-1 cells; conditions: Homo sapiens; JeKo-1 mantle cell lymphoma cells; read-out: IC50 (anti-proliferation) JeKO-1 cells
In short: as §1

BTK = BTK (Homo sapiens, UniProt Q06187); assay: BTK degradation, DC50 and Dmax of Table 1 (cell line not given); set-up: endogenous in cells; conditions: for DC50: concentration giving 50% reduction of BTK expression level
Chain of BTK (Q06187 whole entry): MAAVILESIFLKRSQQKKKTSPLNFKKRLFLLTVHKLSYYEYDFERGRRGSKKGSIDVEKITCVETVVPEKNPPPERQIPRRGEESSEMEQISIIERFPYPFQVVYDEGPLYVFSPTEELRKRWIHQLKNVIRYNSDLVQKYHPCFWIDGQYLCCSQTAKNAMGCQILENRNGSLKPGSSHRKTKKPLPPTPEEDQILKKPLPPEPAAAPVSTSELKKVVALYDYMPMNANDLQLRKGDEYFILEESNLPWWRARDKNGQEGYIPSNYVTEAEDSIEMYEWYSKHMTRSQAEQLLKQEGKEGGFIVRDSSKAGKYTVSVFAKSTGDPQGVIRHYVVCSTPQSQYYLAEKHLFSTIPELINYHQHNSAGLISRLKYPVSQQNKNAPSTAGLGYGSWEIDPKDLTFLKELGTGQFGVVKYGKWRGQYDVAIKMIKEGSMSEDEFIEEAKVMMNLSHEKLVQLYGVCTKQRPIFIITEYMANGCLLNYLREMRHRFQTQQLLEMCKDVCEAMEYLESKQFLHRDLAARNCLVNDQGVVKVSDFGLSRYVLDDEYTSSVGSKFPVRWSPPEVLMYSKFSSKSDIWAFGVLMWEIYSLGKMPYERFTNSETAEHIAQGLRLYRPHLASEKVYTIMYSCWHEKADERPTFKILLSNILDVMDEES

With `Nc1ncnc2c1c(-c1ccc(Oc3ccccc3)cc1)nn2[C@@H]1CCCN(CC2CCN(C(=O)N3CCC(CCN4CCN(c5ccc6c(c5)CN(C5CCC(=O)NC5=O)C6=O)CC4)CC3)CC2)C1` (stereo partly drawn) [Compound 34, 3-(5-(4-(2-(1-(4-(((R)-3-(4-amino-3-(4-phenoxyphenyl)-1H-pyrazolo[3,4-d]pyrimidin-1-yl)piperidin-1-yl)methyl)piperidine-1-carbonyl)piperidin-4-yl)ethyl)piperazin-1-yl)-1-oxoisoindolin-2-yl)piperidine-2,6-dione] the pIC50 (Mino cells) was 5.00 to 6.00, the pIC50 (JeKo-1 cells) was 5.00 to 6.00 and the Dmax (BTK) was > 90%. The DC50 (BTK) was > 50 nM.

In the case of `Nc1ncnc2c1c(-c1ccc(Oc3ccccc3)cc1)nn2C1CCN(CCOCCN2CCN(c3ccc4c(c3)C(=O)N(C3CCC(=O)NC3=O)C4=O)CC2)CC1` (stereo not shown) [Compound 5, 5-(4-(2-(2-(4-(4-amino-3-(4-phenoxyphenyl)-1H-pyrazolo[3,4-d]pyrimidin-1-yl)piperidin-1-yl)ethoxy)ethyl)piperazin-1-yl)-2-(2,6-dioxopiperidin-3-yl)isoindoline-1,3-dione], the pIC50 (Mino cells) was 5.00 to 6.00, the pIC50 (JeKo-1 cells) was 5.00 to 6.00 and the Dmax (BTK) was > 90%. The DC50 (BTK) was 10 to 50 nM.

For `Nc1ncnc2c1c(-c1ccc(Oc3ccccc3)cc1)nn2[C@@H]1CCCN(C(=O)N2CCC(CCCN3CCN(c4ccc5c(c4)C(=O)N(C4CCC(=O)NC4=O)C5=O)CC3)CC2)C1` (stereo partly drawn) [Compound 105, 5-(4-(3-(1-((R)-3-(4-amino-3-(4-phenoxyphenyl)-1H-pyrazolo[3,4-d]pyrimidin-1-yl)piperidine-1-carbonyl)piperidin-4-yl)propyl)piperazin-1-yl)-2-(2,6-dioxopiperidin-3-yl)isoindoline-1,3-dione], the pIC50 (Mino cells) was < 5.00, the pIC50 (JeKo-1 cells) was < 5.00 and the Dmax (BTK) was > 75%. The DC50 (BTK) was > 50 nM.

With `Nc1ncnc2c1c(-c1ccc(Oc3ccccc3)cc1)nn2[C@@H]1CCCN(C2CCN(C(=O)N3CCN(CCCC4CCN(c5ccc6c(c5)C(=O)N(C5CCC(=O)NC5=O)C6=O)CC4)CC3)CC2)C1` (stereo partly drawn) [Compound 189, 5-(4-(3-(4-((R)-3-(4-amino-3-(4-phenoxyphenyl)-1H-pyrazolo[3,4-d]pyrimidin-1-yl)-[1,4′-bipiperidine]-1′-carbonyl)piperazin-1-yl)propyl)piperidin-1-yl)-2-(2,6-dioxopiperidin-3-yl)isoindoline-1,3-dione] the pIC50 (Mino cells) was 5.00 to 6.00, the pIC50 (JeKo-1 cells) was < 5.00 and the Dmax (BTK) was > 75%. The DC50 (BTK) was > 50 nM.

With `Nc1ncnc2c1c(-c1ccc(Oc3ccccc3)cc1)nn2[C@@H]1CCCN(C2CCN(C(=O)N3CCN(CCCN4CCC(c5ccc6c(c5)CN(C5CCC(=O)NC5=O)C6=O)CC4)CC3)CC2)C1` (stereo partly drawn) [Compound 192, 3-(5-(1-(3-(4-((R)-3-(4-amino-3-(4-phenoxyphenyl)-1H-pyrazolo[3,4-d]pyrimidin-1-yl)-[1,4′-bipiperidine]-1′-carbonyl)piperazin-1-yl)propyl)piperidin-4-yl)-1-oxoisoindolin-2-yl)piperidine-2,6-dione] the pIC50 (Mino cells) was < 5.00, the pIC50 (JeKo-1 cells) was < 5.00 and the Dmax (BTK) was > 75%. For the same compound, the DC50 (BTK) was 10 to 50 nM.

With `Nc1ncnc2c1c(-c1ccc(Oc3ccccc3)cc1)nn2[C@@H]1CCCN(C(=O)N2CCC(C3CCN(c4ccc5c(c4)CN(C4CCC(=O)NC4=O)C5=O)CC3)CC2)C1` (stereo partly drawn) [Compound 50, 3-(5-(1′-((R)-3-(4-amino-3-(4-phenoxyphenyl)-1H-pyrazolo[3,4-d]pyrimidin-1-yl)piperidine-1-carbonyl)-[4,4′-bipiperidin]-1-yl)-1-oxoisoindolin-2-yl)piperidine-2,6-dione] the pIC50 (Mino cells) was 5.00 to 6.00, the pIC50 (JeKo-1 cells) was 5.00 to 6.00 and the Dmax (BTK) was > 90%. For the same compound, the DC50 (BTK) was 10 to 50 nM.

`Nc1ncnc2c1c(-c1ccc(Oc3ccccc3)cc1)nn2C1CCN(CCOCCN2CCN(c3ccc4c(c3)CN(C3CCC(=O)NC3=O)C4=O)CC2)CC1` (stereo not shown) [Compound 6, 3-(5-(4-(2-(2-(4-(4-amino-3-(4-phenoxyphenyl)-1H-pyrazolo[3,4-d]pyrimidin-1-yl)piperidin-1-yl)ethoxy)ethyl)piperazin-1-yl)-1-oxoisoindolin-2-yl)piperidine-2,6-dione] was tested, and the pIC50 (Mino cells) was > 6.00, the pIC50 (JeKo-1 cells) was > 6.00 and the Dmax (BTK) was > 90%. The DC50 (BTK) was 10 to 50 nM.

`Nc1ncnc2c1c(-c1ccc(Oc3ccccc3)cc1)nn2[C@@H]1CCCN(C2CCN(CCC3CCN(c4ccc5c(c4)CN(C4CCC(=O)NC4=O)C5=O)CC3)CC2)C1` (stereo partly drawn) [Compound 146, 3-(5-(4-(2-((R)-3-(4-amino-3-(4-phenoxyphenyl)-1H-pyrazolo[3,4-d]pyrimidin-1-yl)-[1,4′-bipiperidin]-1′-yl)ethyl)piperidin-1-yl)-1-oxoisoindolin-2-yl)piperidine-2,6-dione] was tested, and the pIC50 (Mino cells) was 5.00 to 6.00, the pIC50 (JeKo-1 cells) was < 5.00 and the Dmax (BTK) was > 75%. The DC50 (BTK) was > 50 nM.

For `Nc1ncnc2c1c(-c1ccc(Oc3ccccc3)cc1)nn2C1CCN(C(=O)N2CCN(CCCN3CCC(c4ccc5c(c4)C(=O)N(C4CCC(=O)NC4=O)C5=O)CC3)CC2)CC1` (stereo not shown) [Compound 123, 5-(1-(3-(4-(4-(4-amino-3-(4-phenoxyphenyl)-1H-pyrazolo[3,4-d]pyrimidin-1-yl)piperidine-1-carbonyl)piperazin-1-yl)propyl)piperidin-4-yl)-2-(2,6-dioxopiperidin-3-yl)isoindoline-1,3-dione], the pIC50 (Mino cells) was 5.00 to 6.00, the pIC50 (JeKo-1 cells) was 5.00 to 6.00 and the Dmax (BTK) was > 75%. For the same compound, the DC50 (BTK) was > 50 nM.

With `Nc1ncnc2c1c(-c1ccc(Oc3ccccc3)cc1)nn2[C@@H]1CCCN(C(=O)N2CCN(CCC3CCN(c4ccc5c(c4)CN(C4CCC(=O)NC4=O)C5=O)CC3)CC2)C1` (stereo partly drawn) [Compound 68, 3-(5-(4-(2-(4-((R)-3-(4-amino-3-(4-phenoxyphenyl)-1H-pyrazolo[3,4-d]pyrimidin-1-yl)piperidine-1-carbonyl)piperazin-1-yl)ethyl)piperidin-1-yl)-1-oxoisoindolin-2-yl)piperidine-2,6-dione] the pIC50 (Mino cells) was 5.00 to 6.00, the pIC50 (JeKo-1 cells) was 5.00 to 6.00 and the Dmax (BTK) was > 90%. The DC50 (BTK) was < 10 nM.

For `Nc1ncnc2c1c(-c1ccc(Oc3ccccc3)cc1)nn2[C@@H]1CCCN(C(=O)N2CCC(N3CCC(c4ccc5c(c4)C(=O)N(C4CCC(=O)NC4=O)C5=O)CC3)CC2)C1` (stereo partly drawn) [Compound 53, 5-(1′-((R)-3-(4-amino-3-(4-phenoxyphenyl)-1H-pyrazolo[3,4-d]pyrimidin-1-yl)piperidine-1-carbonyl)-[1,4′-bipiperidin]-4-yl)-2-(2,6-dioxopiperidin-3-yl)isoindoline-1,3-dione], the pIC50 (Mino cells) was > 6.00, the pIC50 (JeKo-1 cells) was 5.00 to 6.00 and the Dmax (BTK) was > 90%. The DC50 (BTK) was < 10 nM.

With `Nc1ncnc2c1c(-c1ccc(Oc3ccccc3)cc1)nn2[C@@H]1CCCN(C(=O)N2CCC(CCCN3CCC(c4ccc5c(c4)C(=O)N(C4CCC(=O)NC4=O)C5=O)CC3)CC2)C1` (stereo partly drawn) [Compound 115, 5-(1-(3-(1-((R)-3-(4-amino-3-(4-phenoxyphenyl)-1H-pyrazolo[3,4-d]pyrimidin-1-yl)piperidine-1-carbonyl)piperidin-4-yl)propyl)piperidin-4-yl)-2-(2,6-dioxopiperidin-3-yl)isoindoline-1,3-dione] the pIC50 (Mino cells) was 5.00 to 6.00, the pIC50 (JeKo-1 cells) was < 5.00 and the Dmax (BTK) was > 75%. The DC50 (BTK) was > 50 nM.

In the case of `Nc1ncnc2c1c(-c1ccc(Oc3ccccc3)cc1)nn2[C@@H]1CCCN(C2CCN(C(=O)N3CCC(CC4CCN(c5ccc6c(c5)C(=O)N(C5CCC(=O)NC5=O)C6=O)CC4)CC3)CC2)C1` (stereo partly drawn) [Compound 167, 5-(4-((1-((R)-3-(4-amino-3-(4-phenoxyphenyl)-1H-pyrazolo[3,4-d]pyrimidin-1-yl)-[1,4′-bipiperidine]-1′-carbonyl)piperidin-4-yl)methyl)piperidin-1-yl)-2-(2,6-dioxopiperidin-3-yl)isoindoline-1,3-dione], the pIC50 (Mino cells) was 5.00 to 6.00, the pIC50 (JeKo-1 cells) was 5.00 to 6.00 and the Dmax (BTK) was > 90%. It also gave a DC50 (BTK) of 10 to 50 nM.
